Experimental data published in publication PMC10786919, “Design-rules for stapled peptides with in vivo activity and their application to Mdm2/X antagonists” (Nature Communications, 2024).
Converted amounts (≈) assume the structure as drawn. Positions of bridges follow the written chain, without caps; N, C: chain ends. Non-standard residues stand in square brackets, D forms with d. Residues, ends and D or L forms follow the SMILES beside them. R8 = C=CCCCCCC[C@@](C)(N)C(=O)O; Cba = N[C@@H](CC1CCC1)C(=O)O; S5 = C=CCCC[C@](C)(N)C(=O)O

Columns and labels:
[1] = Solubility assay (kinetic solubility, PBS pH 7); type: physicochemical; conditions: pH 7, aqueous buffer, kinetic from dmso stock, pH 7, PBS; read-out: Solubility
How it was run: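 Quantitation uses an external standard at 100 µM, prepared from 10 mM stock in acetonitrile:methanol:DMSO (10:80:10). Solubility (µM) = (peak area of sample ÷ peak area of standard) × standard concentration.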

[2] = Experimental LogD (partition coefficient); conditions: not stated, Partition Coeff LogD
[3] = physchem
[4] = Lactate dehydrogenase (LDH) release assay; type: cell-based; conditions: LDH: Cytotoxicity assay EC50
How it was run: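 HCT116 cells stably carrying a p53-responsive β-lactamase reporter were seeded at 8000 cells per well with a final DMSO level of 0.5%. Membrane integrity was assessed by lactate dehydrogenase release using a homogeneous fluorometric kit. Values are geometric means of at least three biological replicates.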

Structure (SMILES) | solubility kinetic [1] [µM] | logD [2] | EPSA [3] [A^2] | EC50 [4] [µM]
CC(=O)N[C@@H](Cc1c[nH]cn1)C(=O)N[C@H](C(=O)N[C@@H](Cc1ccccc1)C(=O)N[C@]1(C)CCCCCCC=CCCC[C@@](C)(C(=O)N[C@@H](CO)C(=O)N[C@@H](C)C(=O)N[C@@H](C)C(N)=O)NC(=O)[C@H](CC2CCC2)NC(=O)[C@H](CC(C)C)NC(=O)[C@H](CCC(N)=O)NC(=O)[C@H](Cc2c[nH]c3ccccc23)NC(=O)[C@H](Cc2ccc(O)cc2)NC(=O)[C@H](CCC(=O)O)NC1=O)[C@@H](C)O [MP-197, ATSP-7041 (L1H)] (Ac-HTF[R8]EYWQL[Cba][S5]SAA-NH2; staple 4-11) | 17 (≈ 30.8 µg/mL) | 2.56 | 222 | > 50
CC(=O)N[C@@H](C)C(=O)N[C@@H](C)C(=O)N[C@@H](Cc1ccccc1)C(=O)N[C@]1(C)CCCCCCC=CCCC[C@@](C)(C(=O)N[C@@H](CO)C(=O)N[C@@H](C)C(=O)N[C@@H](C)C(N)=O)NC(=O)[C@H](CC2CCC2)NC(=O)[C@H](C)NC(=O)[C@H](C)NC(=O)[C@H](Cc2c[nH]c3ccccc23)NC(=O)[C@H](Cc2ccc(O)cc2)NC(=O)[C@H](CCC(=O)O)NC1=O [MP-1207] (Ac-AAF[R8]EYWAA[Cba][S5]SAA-NH2; staple 4-11) | 171 (≈ 276 µg/mL) | 2.91 | 224 | > 50
CC(=O)N[C@@H](CC(C)C)C(=O)N[C@H](C(=O)N[C@@H](Cc1ccccc1)C(=O)NC(C)(C)C(=O)N[C@@H](CCC(=O)O)C(=O)N[C@@H](Cc1ccc(O)cc1)C(=O)N[C@@H](Cc1c[nH]c2ccccc12)C(=O)N[C@@H](CCC(N)=O)C(=O)N[C@@H](CC(C)C)C(=O)N[C@@H](CC1CCC1)C(=O)NC(C)(C)C(=O)N[C@@H](CO)C(=O)N[C@@H](C)C(=O)N[C@@H](C)C(N)=O)[C@@H](C)O [MP-7189] | 24 (≈ 40 µg/mL) | 2.12 | 199 | > 50
CC(=O)N[C@@H](CC(C)C)C(=O)N[C@H](C(=O)N[C@@H](Cc1ccccc1)C(=O)N[C@]1(C)CCCCCCC=CCCC[C@@](C)(C(=O)N[C@@H](CO)C(=O)N[C@@H](C)C(=O)N[C@@H](C)C(N)=O)NC(=O)[C@H](CC2CCC2)NC(=O)[C@H](Cc2c[nH]cn2)NC(=O)[C@H](CCC(N)=O)NC(=O)[C@H](Cc2c[nH]c3ccccc23)NC(=O)[C@H](Cc2ccc(O)cc2)NC(=O)[C@H](CCC(=O)O)NC1=O)[C@@H](C)O [MP-200, ATSP-7041 (L9H)] (Ac-LTF[R8]EYWQH[Cba][S5]SAA-NH2; staple 4-11) | 94.5 (≈ 171 µg/mL) | 2.69 | 219 | > 50
CC(=O)N[C@@H](CCCNC(=N)N)C(=O)N[C@H](C(=O)N[C@@H](Cc1ccccc1)C(=O)N[C@]1(C)CCCCCCC=CCCC[C@@](C)(C(=O)N[C@@H](CO)C(=O)N[C@@H](C)C(=O)N[C@@H](C)C(N)=O)NC(=O)[C@H](CC2CCC2)NC(=O)[C@H](CC(C)C)NC(=O)[C@H](CCC(N)=O)NC(=O)[C@H](Cc2c[nH]c3ccccc23)NC(=O)[C@H](Cc2ccc(O)cc2)NC(=O)[C@H](CCC(=O)O)NC1=O)[C@@H](C)O [MP-191] (Ac-RTF[R8]EYWQL[Cba][S5]SAA-NH2; staple 4-11) | 3 (≈ 5.49 µg/mL) | 2.72 | 222 | > 50
CC(=O)N[C@@H](CC(C)C)C(=O)N[C@H](C(=O)N[C@@H](Cc1ccccc1)C(=O)N[C@]1(C)CCCCCCC=CCCC[C@@](C)(C(=O)N[C@@H](CCCNC(=N)N)C(=O)N[C@@H](C)C(=O)N[C@@H](C)C(N)=O)NC(=O)[C@H](CC2CCC2)NC(=O)[C@H](CC(C)C)NC(=O)[C@H](CCC(N)=O)NC(=O)[C@H](Cc2c[nH]c3ccccc23)NC(=O)[C@H](Cc2ccc(O)cc2)NC(=O)[C@H](CCC(=O)O)NC1=O)[C@@H](C)O [MP-196] (Ac-LTF[R8]EYWQL[Cba][S5]RAA-NH2; staple 4-11) | 3 (≈ 5.57 µg/mL) | 2.77 | 214 | > 50
